Assay results reported in article PMC4303209, “A novel phosphatidylinositol 3-kinase (PI3K) inhibitor directs a potent FOXO-dependent, p53-independent cell cycle arrest phenotype characterized by the differential induction of a subset of FOXO-regulated genes” (Breast Cancer Research : BCR, 2014).

Test system: MCF-7 breast cancer cells
Assay: Microarray gene expression analysis (Agilent whole human genome 4 x 44K; compound vs DMSO, LIMMA log2 fold change)
Type: cell-based
Conditions: Apoptosis genes

Cn1ncc2c(N3CCOCC3)nc(-c3cccc(O)c3)nc21 [ETP-45658]
HSPD1 log2FC (Gene 3329): 0.324 | HSPE1 log2FC (Gene 3336): -0.110 | HTR2B log2FC (Gene 3357): -0.636 | IAPP log2FC (Gene 3375): -0.105 | ID1 log2FC (Gene 3397): -0.206 | ID3 log2FC (Gene 3399): -0.237 | IFI16 log2FC (Gene 3428): 0.357 | IFI27 log2FC (Gene 3429): -0.362 | IFIT2 log2FC (Gene 3433): 1.724 | IFIT3 log2FC (Gene 3437): 0.389 | IFNG log2FC (Gene 3458): -0.055 | IGBP1 log2FC (Gene 3476): 0.248 | IGF1 log2FC (Gene 3479): 0.046 | IGF1R log2FC (Gene 3480): 0.075 | IGF2R log2FC (Gene 3482): 0.109 | IGFBP3 log2FC (Gene 3486): -0.114 | IKBKB log2FC (Gene 3551): 0.231 | IL1B log2FC (Gene 3553): -0.057 | IL1RN log2FC (Gene 3557): -0.173 | IL2 log2FC (Gene 3558): -0.036 | IL4 log2FC (Gene 3565): -0.060 | IL6 log2FC (Gene 3569): 0.421 | IL6R log2FC (Gene 3570): 0.499 | IL6ST log2FC (Gene 3572): 0.387 | IL7 log2FC (Gene 3574): 0.329 | IL10 log2FC (Gene 3586): -0.054 | TNFRSF9 log2FC (Gene 3604): -0.082 | ING2 log2FC (Gene 3622): 0.424 | INHBA log2FC (Gene 3624): -0.426 | INHBB log2FC (Gene 3625): -1.024 | INS log2FC (Gene 3630): -0.159 | INPP5D log2FC (Gene 3635): -0.052 | INSL3 log2FC (Gene 3640): -0.299 | IRAK1 log2FC (Gene 3654): -0.289 | IRF1 log2FC (Gene 3659): -0.225 | IRF3 log2FC (Gene 3661): -0.604 | IRF5 log2FC (Gene 3663): 1.125 | IRF7 log2FC (Gene 3665): 0.214 | ITGA1 log2FC (Gene 3672): 0.199 | ITGA5 log2FC (Gene 3678): -0.764 | ITGAV log2FC (Gene 3685): 0.634 | ITGB1 log2FC (Gene 3688): 0.722 | ITPR1 log2FC (Gene 3708): 0.270 | JAG2 log2FC (Gene 3714): 0.300 | JAK2 log2FC (Gene 3717): 0.353 | JAK3 log2FC (Gene 3718): -0.320 | JUN log2FC (Gene 3725): -0.912 | KCNMA1 log2FC (Gene 3778): 0.256 | KNG1 log2FC (Gene 3827): -0.104 | KPNA1 log2FC (Gene 3836): -0.177 | KPNB1 log2FC (Gene 3837): 0.586 | KRT8 log2FC (Gene 3856): -0.518 | KRT18 log2FC (Gene 3875): -0.481 | LCK log2FC (Gene 3932): -0.268 | LEP log2FC (Gene 3952): -0.061 | LGALS7 log2FC (Gene 3963): -0.300 | LIG4 log2FC (Gene 3981): 0.100 | LMNA log2FC (Gene 4000): -0.311 | LMNB1 log2FC (Gene 4001): -0.133 | LRP6 log2FC (Gene 4040): -0.141 | LTBR log2FC (Gene 4055): -0.240 | LTK log2FC (Gene 4058): -0.048 | LYN log2FC (Gene 4067): -0.239 | SMAD3 log2FC (Gene 4088): 0.254 | SMAD6 log2FC (Gene 4091): -0.277 | MAL log2FC (Gene 4118): -0.683 | MAX log2FC (Gene 4149): -0.288 | MCF2 log2FC (Gene 4168): 0.044 | MCL1 log2FC (Gene 4170): -1.365 | MDK log2FC (Gene 4192): -0.110 | MDM2 log2FC (Gene 4193): -0.059 | MECP2 log2FC (Gene 4204): -0.162 | MEF2A log2FC (Gene 4205): -0.315 | MEF2C log2FC (Gene 4208): 0.262 | MEF2D log2FC (Gene 4209): -0.705 | MAP3K5 log2FC (Gene 4217): -0.666 | MEN1 log2FC (Gene 4221): -0.273 | KITLG log2FC (Gene 4254): -0.228 | MGMT log2FC (Gene 4255): -0.305 | MIF log2FC (Gene 4282): 0.242 | MLH1 log2FC (Gene 4292): 0.538 | MAP3K9 log2FC (Gene 4293): -0.899 | MAP3K10 log2FC (Gene 4294): 0.297 | MAP3K11 log2FC (Gene 4296): -0.949 | MMP9 log2FC (Gene 4318): -0.727 | MNAT1 log2FC (Gene 4331): 0.729 | MNT log2FC (Gene 4335): 1.624 | MPO log2FC (Gene 4353): 0.046 | CITED1 log2FC (Gene 4435): -0.078 | MSH2 log2FC (Gene 4436): 0.939 | MSX1 log2FC (Gene 4487): -0.324 | MUC1 log2FC (Gene 4582): -0.901 | MUC2 log2FC (Gene 4583): -0.262 | MUC5AC log2FC (Gene 4586): -0.379 | MUSK log2FC (Gene 4593): -0.344 | MX1 log2FC (Gene 4599): 0.147 | MYC log2FC (Gene 4609): 0.554 | MYD88 log2FC (Gene 4615): -0.689 | GADD45B log2FC (Gene 4616): 0.642 | NBN log2FC (Gene 4683): 0.839 | NDUFS1 log2FC (Gene 4719): 0.459 | NF1 log2FC (Gene 4763): 0.412 | NFATC4 log2FC (Gene 4776): 0.112 | NFE2L2 log2FC (Gene 4780): 0.727 | NFKB1 log2FC (Gene 4790): -0.122 | NFKBIA log2FC (Gene 4792): -0.281 | NGFR log2FC (Gene 4804): -0.063 | NKX3-1 log2FC (Gene 4824): -0.261 | NME1 log2FC (Gene 4830): 0.168 | NME2 log2FC (Gene 4831): 0.216 | NME3 log2FC (Gene 4832): -0.214 | NMT1 log2FC (Gene 4836): -0.046 | NODAL log2FC (Gene 4838): -0.110 | NOS3 log2FC (Gene 4846): -0.420 | NOTCH2 log2FC (Gene 4853): 0.166 | NPM1 log2FC (Gene 4869): 0.586 | NPTX1 log2FC (Gene 4884): -0.350 | NPY5R log2FC (Gene 4889): -0.068 | SLC11A2 log2FC (Gene 4891): 0.211 | NRAS log2FC (Gene 4893): -0.204 | NTF3 log2FC (Gene 4908): -1.251 | NTRK2 log2FC (Gene 4915): -0.357 | NR4A2 log2FC (Gene 4929): 0.761 | OCLN log2FC (Gene 4950): 0.639 | OPA1 log2FC (Gene 4976): 0.527 | TNFRSF11B log2FC (Gene 4982): 0.707 | OSM log2FC (Gene 5008): 0.056 | P2RX1 log2FC (Gene 5023): -0.067 | P2RX4 log2FC (Gene 5025): 0.236 | P2RX7 log2FC (Gene 5027): -0.509 | SERPINB2 log2FC (Gene 5055): -0.075 | PAK1 log2FC (Gene 5058): 0.117 | PAK2 log2FC (Gene 5062): -0.170 | PARK2 log2FC (Gene 5071): -0.177 | PAWR log2FC (Gene 5074): 0.858 | PAX3 log2FC (Gene 5077): -0.277 | PAX4 log2FC (Gene 5078): -0.139 | PAX7 log2FC (Gene 5081): -0.260 | PCNT log2FC (Gene 5116): 0.317 | PDCD1 log2FC (Gene 5133): -0.432 | PDCD2 log2FC (Gene 5134): -0.150 | PDE1A log2FC (Gene 5136): -0.227 | PDK1 log2FC (Gene 5163): 0.562 | PDK2 log2FC (Gene 5164): 1.064 | PDK4 log2FC (Gene 5166): 0.792 | PDPK1 log2FC (Gene 5170): 0.541 | PHB log2FC (Gene 5245): -0.244 | SERPINB9 log2FC (Gene 5272): -0.261 | SERPINB10 log2FC (Gene 5273): 0.731 | PIK3CA log2FC (Gene 5290): 0.795 | PIM1 log2FC (Gene 5292): 1.131 | PIK3R1 log2FC (Gene 5295): 0.328 | PLAGL1 log2FC (Gene 5325): 0.310 | PLAGL2 log2FC (Gene 5326): -1.493 | PLK1 log2FC (Gene 5347): -0.287 | PLSCR1 log2FC (Gene 5359): 0.433 | PMAIP1 log2FC (Gene 5366): -1.093
